# From PubChem BioAssay (NCI)
#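 Exposure lasted 48 hours, with cells grown in 96-well plates and compounds tested at five concentrations. Abbreviation: GI50, concentration required for 50% inhibition of growth. TGI denotes the concentration required for complete inhibition of growth.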
# What was measured:
# Test in all cases: DTP human tumour cell line panel, 48 h
# HOP-62 NSCLC = tested on: HOP-62 NSCLC
# A549 NSCLC = tested on: A549 NSCLC
# RXF 393 renal = tested on: RXF 393 renal
# NCI-H522 lung = tested on: NCI-H522 lung
# MALME-3M melanoma = tested on: MALME-3M melanoma
# U251 CNS = tested on: U251 CNS
# EKVX NSCLC = tested on: EKVX NSCLC
# MOLT-4 leukemia = tested on: MOLT-4 leukemia
# OVCAR-8 ovarian = tested on: OVCAR-8 ovarian
# K-562 leukemia = tested on: K-562 leukemia
SMILES,TGI (HOP-62 NSCLC),TGI (A549 NSCLC),TGI (RXF 393 renal),TGI (NCI-H522 lung),TGI (MALME-3M melanoma),TGI (U251 CNS),TGI (EKVX NSCLC),TGI (MOLT-4 leukemia),TGI (OVCAR-8 ovarian),TGI (K-562 leukemia),GI50 (RXF 393 renal),GI50 (EKVX NSCLC),GI50 (MOLT-4 leukemia),GI50 (OVCAR-8 ovarian),GI50 (K-562 leukemia),GI50 (HOP-62 NSCLC),GI50 (A549 NSCLC),GI50 (NCI-H522 lung),GI50 (MALME-3M melanoma),GI50 (U251 CNS)
CCN(CC)COC(=S)S,> 100 µM,> 100 µM,> 56.1 µM,> 94.7 µM,> 100 µM,> 100 µM,> 100 µM,69 µM,> 100 µM,> 100 µM,–,–,–,–,–,–,–,–,–,–
Cn1c2c3c(F)c(F)ccc3nc-2cc2ccccc21,6.92 µM,15.4 µM,26.9 µM,14.3 µM,14.1 µM,12.9 µM,26.8 µM,> 100 µM,16.3 µM,> 100 µM,–,–,–,–,–,–,–,–,–,–
CCN(CC)CCNc1ccc2nnn3c4ccccc4c(=O)c1c23,15.8 µM,13.2 µM,18.5 µM,16.4 µM,16.1 µM,9.22 µM,19.4 µM,6.7 µM,18.6 µM,14.8 µM,–,–,–,–,–,–,–,–,–,–
C[N+](C)([O-])Cc1cc(-c2ccccc2)ccc1O,> 100 µM,> 100 µM,> 100 µM,> 100 µM,> 100 µM,> 100 µM,> 100 µM,> 100 µM,–,> 100 µM,–,–,–,–,–,–,–,–,–,–
O=c1nc2sc3ccc4ccccc4c3n2[nH]c1=O,71.5 µM,> 100 µM,38.1 µM,> 100 µM,–,> 100 µM,> 100 µM,> 100 µM,> 100 µM,> 100 µM,–,–,–,–,–,–,–,–,–,–
COC(=O)c1cc(C)n(CN(Cc2ccccc2)Cn2nc(C(=O)OC)cc2C)n1,> 100 µM,> 100 µM,98 µM,> 100 µM,> 100 µM,> 100 µM,> 100 µM,> 100 µM,> 100 µM,> 100 µM,–,–,–,–,–,–,–,–,–,–
NC(=O)C(Nc1ccc(Cl)cc1)c1cc2cc(Br)ccc2nc1Cl (stereo not given),> 50 µM,> 50 µM,> 50 µM,> 50 µM,> 50 µM,–,> 50 µM,> 50 µM,> 50 µM,> 50 µM,–,–,–,–,–,–,–,–,–,–
Cc1cc(C)n(CN(Cn2nc(C)cc2C)c2ccccc2)n1,66.8 µM,> 100 µM,38.9 µM,52.8 µM,52.7 µM,44 µM,72.8 µM,28.3 µM,56 µM,46.1 µM,–,–,–,–,–,–,–,–,–,–
CCN(CC)CCNc1ccc(C)c2sc3ccccc3c(=O)c12,24.2 µM,7.13 µM,4.73 µM,5.5 µM,9.46 µM,5.65 µM,19.3 µM,4.65 µM,13.3 µM,6.08 µM,–,–,–,–,–,–,–,–,–,–
CC(=O)N/C(=C\c1ccc(/C=C(\NC(C)=O)C2=NC3C(=O)c4ccccc4C(=O)C3N2)cc1)C1=NC2C(=O)c3ccccc3C(=O)C2N1 (stereo not given),–,–,> 100 µM,> 100 µM,–,> 100 µM,> 100 µM,26.6 µM,> 100 µM,> 100 µM,–,–,–,–,–,–,–,–,–,–
CC1=CC(C)(C)Nc2ccc(CSc3ccccc3)cc21,80 µM,51.4 µM,38.3 µM,46.5 µM,47.5 µM,> 100 µM,59.9 µM,–,> 100 µM,> 100 µM,–,–,–,–,–,–,–,–,–,–
O=C1C(Cl)C(c2cc3cc(Br)ccc3nc2Cl)N1c1c(Cl)cccc1Cl (stereo not given),> 25 µM,> 25 µM,> 25 µM,11.3 µM,> 25 µM,–,22.2 µM,11.4 µM,> 25 µM,18 µM,–,–,–,–,–,–,–,–,–,–
CC[C@@H](/C=C\CCC1(C[C@@H](N)CCC=C(C)C)OCCO1)O[Si](C(C)C)(C(C)C)C(C)C,48.2 µM,33.1 µM,37.3 µM,39.7 µM,–,35.1 µM,29.3 µM,37.1 µM,26.4 µM,31.1 µM,–,–,–,–,–,–,–,–,–,–
O=C(O)c1nccnc1C(=O)O,–,> 100 µM,> 100 µM,> 100 µM,> 100 µM,> 100 µM,> 100 µM,> 100 µM,–,> 100 µM,–,–,–,–,–,–,–,–,–,–
O=[As](O)(O)c1ccc2nc3cc([As](=O)(O)O)ccc3nc2c1,> 100 µM,> 100 µM,> 100 µM,> 100 µM,> 100 µM,> 100 µM,> 100 µM,> 100 µM,> 100 µM,> 100 µM,–,–,–,–,–,–,–,–,–,–
CCCCCCCCCCCCCCCC(=O)OC1C(O)C(CO)OC(OC)C1NC(=O)N(CCCl)N=O (stereo not given),32.3 µM,23.8 µM,–,23.8 µM,–,19.9 µM,34.7 µM,23 µM,38.1 µM,66.1 µM,–,–,–,–,–,–,–,–,–,–
C=CCc1cccc(/C=N\N=C(/N)NO)c1O,7.08 µM,29.1 µM,19.2 µM,10.6 µM,70.9 µM,> 88.3 µM,17.7 µM,> 26.8 µM,52.6 µM,> 47.9 µM,–,–,–,–,–,–,–,–,–,–
CN(C)C(=O)C1CCN(Cc2c[nH]c3ccccc23)CC1,> 100 µM,> 100 µM,> 100 µM,> 100 µM,> 100 µM,> 100 µM,> 100 µM,> 100 µM,> 100 µM,> 100 µM,–,–,–,–,–,–,–,–,–,–
Nc1ccccc1N=Nc1c(S(=O)(=O)O)cc2cc(S(=O)(=O)O)cc(O)c2c1O,> 100 µM,> 100 µM,> 100 µM,> 100 µM,> 100 µM,> 100 µM,> 100 µM,> 100 µM,> 100 µM,> 100 µM,–,–,–,–,–,–,–,–,–,–
O=C(/C=C/c1ccc(O)c(O)c1)NCCc1ccc(-c2ccccc2)cc1,> 100 µM,> 100 µM,> 100 µM,> 100 µM,53.9 µM,–,> 100 µM,> 100 µM,> 100 µM,80.4 µM,–,–,–,–,–,–,–,–,–,–
CCOC(=O)NC(Nc1ccc(Cl)cn1)(C(F)(F)F)C(F)(F)F,> 100 µM,–,> 100 µM,> 100 µM,> 100 µM,> 100 µM,> 100 µM,> 100 µM,–,> 100 µM,–,–,–,–,–,–,–,–,–,–
CC(C)CN(CC#N)CC(C)C,> 100 µM,> 100 µM,> 100 µM,> 100 µM,> 100 µM,> 100 µM,> 100 µM,> 100 µM,> 100 µM,> 100 µM,–,–,–,–,–,–,–,–,–,–
Cc1c2c(ccc3ccccc32)c[n+]2ccccc12,26.7 µM,> 100 µM,–,18.8 µM,6.98 µM,13.8 µM,–,27.9 µM,60.1 µM,37.8 µM,–,–,–,–,–,–,–,–,–,–
Cn1c(-c2ccc(N=NNc3ccc(-c4n[nH]c(=S)n4C)cc3)cc2)n[nH]c1=S,69.4 µM,> 100 µM,32.6 µM,> 100 µM,> 100 µM,28.9 µM,> 100 µM,> 100 µM,23.4 µM,> 100 µM,–,–,–,–,–,–,–,–,–,–
Cc1ccc(-c2cc(-c3c(C)nn(C)c(=O)c3N)[nH]n2)cc1,–,> 100 µM,> 100 µM,–,> 100 µM,> 100 µM,> 100 µM,> 100 µM,> 100 µM,> 100 µM,–,–,–,–,–,–,–,–,–,–
Cc1ccc(C2CC(c3cccc(Nc4ccncc4)c3)=NN2c2ccccc2)cc1 (stereo not given),–,–,3.02 µM,–,–,–,3.25 µM,4.64 µM,4.85 µM,6.62 µM,1.61 µM,1.69 µM,1.95 µM,2.19 µM,2.11 µM,–,–,–,–,–
[O-][n+]1c(-c2ccccc2)c2nc3ccccc3nc2c2ccccc21,> 100 µM,> 100 µM,> 100 µM,> 100 µM,> 100 µM,> 100 µM,> 100 µM,> 100 µM,> 100 µM,> 100 µM,–,–,–,–,–,–,–,–,–,–
O=C(O)Cn1c2c(c3c(O)cccc31)C(=O)c1ccccc1-2,> 100 µM,> 100 µM,> 100 µM,> 100 µM,> 100 µM,> 100 µM,> 100 µM,> 100 µM,> 100 µM,> 100 µM,> 100 µM,3.2 µM,> 100 µM,> 100 µM,> 100 µM,> 100 µM,> 100 µM,> 100 µM,> 100 µM,> 100 µM
